Reference: ChEMBL document CHEMBL1201862, “PubChem BioAssay data set” (2004)
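In this assay, cells in 96-well plates receive the compound at five concentrations for 48 hours. Endpoints are linearly interpolated between the surrounding concentrations. The concentration for 50% growth inhibition is given as GI50.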 Active and inactive are the calls of the source. No stated cut-off is given here; in the data, active = GI50 up to about 1.1 µM and inactive = higher.

How the values were obtained:
Experiment in all cases: NCI-60 cell line screen, 48 h
[1] = tested on: SF-539
[2] = tested on: RPMI-8226
[3] = tested on: COLO 205
[4] = tested on: Malme-3M
[5] = tested on: MOLT-4
[6] = tested on: SNB-78
[7] = tested on: DMS-114
[8] = tested on: UO-31
[9] = tested on: RXF 631
[10] = tested on: SK-OV-3
[11] = tested on: SF-295
[12] = tested on: K562
[13] = tested on: OVCAR-3
[14] = tested on: SF-268
[15] = tested on: M14
[16] = tested on: ACHN
[17] = tested on: SK-MEL-5
[18] = tested on: HCT-116
[19] = tested on: HT-29
[20] = tested on: LXFL 529

Measured: GI50

O=S(=O)(CF)OCCCCOS(=O)(=O)CF
inactive: [1] > 100 µM | [2] > 100 µM | [3] > 100 µM | [4] > 100 µM | [5] 23.8 µM | [6] > 100 µM | [7] 74 µM | [8] > 100 µM | [9] > 100 µM | [10] > 100 µM | [11] > 100 µM | [12] > 100 µM | [13] > 100 µM | [14] > 100 µM | [15] > 100 µM | [16] 20.4 µM | [17] > 100 µM | [18] > 100 µM | [19] > 100 µM | [20] > 100 µM
